According to US9316638B2, “Reagents for reducing leukocyte interference in immunoassays” (Abbott Point of Care Inc., priority 2010, dated 2016):

Tests used:
leukocytes = assay: BNP immunoassay signal slope (AmpActSlope) as indicator of leukocyte interference in enriched buffy blood samples (EBS); format: cell-based, human
Procedure: The experiments described below were performed on a BNP assay, specifically an i-STAT® BNP cartridge (Abbott Point of Care, Princeton, N.J., USA) or a partially modified version thereof.
As an experimental aid to understanding the affect of leukocytes on whole-blood immunoassays, it is desirable to create an enriched buffy (blood) sample (EBS). […] In the experiments described herein, the EBS constituted approximately a ten-fold increase in the buffy concentration, i.e. roughly 90% of the plasma and red cells were removed. The hematocrit value (Hct) of the sample was therefore maintained in the normal range, roughly 50-60%.
As a baseline indicator of leukocyte interference, a cut-off value of a signal rate of change above 0.05 nA per second, was used (see right side y-axis, AmpActSlope). […] In the first group the enzyme is anticipated to remove substantially all the oxygen and the co-reactant glucose is added in substantial excess. The second group relies on glucose already in the sample to react with the enzyme. The third group is a control with added glucose and no enzyme.
With respect to the first group (EBS+OX+Glu), the initial oxygen concentration of about 200 mm Hg falls to about 10 mm Hg after 50 minutes, and the glucose concentration drops from 700 to about 100 mg/dL over the same period. During this period immunoassays were run to determine the AmpActSlope value.
To further characterize these effects, a study was run on a larger sample donor pool (15 donors multiple runs), as shown in FIG. 27. FIG. 27 is a scatter plot where the desirable AmpActSlope value is less than 0.05 and greater than −0.03 nA per second. In addition, in this particular experiment a maximum desirable sensor threshold current (ParamActDoc) was also set at 8.0 nA. The desirable result was therefore to minimize samples falling into the five segments around the target zone.

[1] = Text: While it is more common for a blood sample used in an immunoassay performed in a laboratory to be drawn from a vein, where point-of-care (or bedside, e.g. Emergency Room, Operating Room) testing is done, it is not uncommon for the sample to be drawn from an artery. […] To assess the impact of an arterial sample on the present assay, simulated arterial samples were generated and tested. […] Simulated samples were created with a tonometer using venous blood collected in an EDTA tube. The tonometer equilibrates the blood with a predetermined gas composition.
Note these samples were not enriched as described above.

[2] = glucose and oxygen concentrations in treated EBS samples (i-STAT CG8+ cartridges); format: biochemical, human; details: OX 4.0 IU per mL, Glu 700 mg/dL
Procedure: In the first group the enzyme is anticipated to remove substantially all the oxygen and the co-reactant glucose is added in substantial excess. The second group relies on glucose already in the sample to react with the enzyme. The third group is a control with added glucose and no enzyme.
Note that i-STAT® CG8+ cartridges (Abbott Point of Care, New Jersey, USA) were used to determine the glucose and oxygen concentrations.
The “Sample 2” set of data was obtained where the treatment occurs in a closed syringe to prevent any oxygen being introduced from ambient air. […] The “Sample 3” data reflects opening the syringe about 20 minutes after the initial runs to allow ambient air access. This sample was run at the 40 minute mark. […] The “Sample 1” data in FIG. 28A is a control EBS+Glu only.

glucose oxidase
assayed samples with AmpActSlope below 0.05 nA per second (leukocytes; EBS, OX 4.0 IU per mL, Glu 700 mg/dL, FIG. 26): 9 out of 13
reduction in number of assays with slope above the desirable threshold (leukocytes; addition of glucose oxidase, in general): about 90%
difference in assays beyond threshold, treated vs untreated (leukocytes; treated 1.0% vs untreated 13.4%, FIG. 27): 92.1%
assays beyond threshold (AmpActSlope <0.05 and >-0.03 nA per second, ParamActDoc max 8.0 nA) (leukocytes; treated EBS+OX, N=287, 15 donors, FIG. 27): 1.0%
glucose oxidase concentration in the sample found preferable (leukocytes; venous samples): > 3 IU per mL
inhibition of phagocytosis in arterial blood ([1]; glucose oxidase 6.0 IU and 12.0 IU per mL): sufficient to inhibit phagocytosis
partial pressure of oxygen in the sample ([1]; simulated arterial blood, initial PO2 about 150 mm Hg, glucose oxidase 6.0 IU and 12.0 IU per mL): below 50 mm Hg
change in glucose and PO2 ([1]; tonometered whole blood, glucose oxidase 6 and 12 IU per mL, no added glucose): decreased glucose and PO2
glucose concentration after treatment ([2]; OX+Glu from 700 after 50 minutes): below 20 mg/dL
oxygen concentration (PO2) after treatment ([2]; initial about 200 mm Hg, OX+Glu value after 50 minutes): about 50 mm Hg
